EP3122315B1, “ACTIVE-INGREDIENT COMBINATIONS CONSISTING OF 4-HYDROXYACETOPHENONE AND ONE OR MORE GLYCERIN AND/OR OLIGOGLYCERIN ESTERS OF BRANCHED CHAINS AND/OR UNBRANCHED CHAINS OF ALKANE CARBOXYLIC ACIDS, AND COSMETIC OR DERMATOLOGICAL PREPARATIONS CONTAINING SAID ACTIVE-INGREDIENT COMBINATIONS” (Symrise AG, priority 2014, dated 2015)
Like-named read-outs stand apart in the source and are kept apart here.

Assay: Solubility tests of 4-hydroxyacetophenone in cosmetic oil with or without glycerol ester additive
Settings: for Löslichkeit "HAP" bei 35 °C / Löslichkeit "HAP" bei RT: solvent C12-15 Alkylbenzoate; for Löslichkeit "HAP" bei RT: room temperature (ca. 20 °C)
Protocol: Die Durchführung der Löslichkeitsversuche erfolgte bei 2 verschiedenen Temperaturen: Bei Raumtemperatur (ca. 20 °C) und bei 35 °C.
Das weiße, kristalline 4-Hydroxyacetophenon ("4-HAP") wurde in kleinen Portionen langsam (über mehrere Stunden) zum jeweiligen Lösungsmittel unter Rühren hinzugegeben, bis sich kein weiteres Material mehr lösen ließ. Hier war die Löslichkeitsgrenze erreicht. Nicht gelöstes Material war deutlich als milchiger Niederschlag oder einzelne Kristalle erkennbar. Das Additiv (der jeweilige Glycerinester) wurde ebenfalls in kleinen Portionen hinzugegeben.
Die Experimente bei 35°C wurden im Wasserbad durchgeführt. Die Temperatur wurde per Temperatursonde, welche mit dem Heizrührer verbunden war, konstant gehalten. Die Experimente wurden in verschraubten 15 ml Gläsern durchgeführt, um ein Verdampfen des Lösungsmittels zu verhindern. Die Löslichkeit wurde 12-24 Stunden nach der letzten Substanzzugabe gemessen, so dass sich das System equilibrieren konnte. […] Die Löslichkeitsversuche wurden in dem bekannten kosmetischen Öl "C12-15 Alkylbenzoate", erhältlich unter anderem unter dem Handelsnamen Tegesoft® TN B von der Firma Evonik, durchgeführt. Die Ergebnisse sind in Tabelle 1 wiedergegeben: Tabelle 1

## CCCCCCCC(=O)OCC(O)CO (centres unmarked) [Glycerylcaprylat]
  Löslichkeit des Glycerylesters im verwendeten Lösungsmittel (kosmetischen öl): vollständig

## CCCCCCCCCCCCCCCCCC(=O)OCC(O)CO (centres unmarked) [Glycerylstearate, reference compound]
Known emulsifier used as additive, concentration not given
  Einfluss auf die Löslichkeit von 4-Hydroxyacetophenon: keinen Einfluss

## CC(=O)c1ccc(O)cc1 [HAP, 4-Hydroxyacetophenon]
Concentration at which undissolved crystals were seen, no glycerol ester, C12-15 Alkylbenzoate, 35 °C
  Kristalle mit (Löslichkeit "HAP" bei 35 °C): 3%
Concentration at which undissolved crystals were seen, no glycerol ester, C12-15 Alkylbenzoate, room temperature
  Kristalle bei (Löslichkeit "HAP" bei RT): 2,25%
No glycerol ester (Ohne), 35 °C water bath
  Löslichkeit "HAP" bei 35 °C: 2,5%
No glycerol ester (Ohne), read 12-24 h after last addition
  Löslichkeit "HAP" bei RT: 2%
With 0,5 % Polyglyceryl-2-caprat
  Löslichkeit "HAP" bei RT: 2,25 % gelöst
With 1 % Glycerylcaprylat, 35 °C
  Löslichkeit "HAP" bei 35 °C: 3 % gelöst (Steigerung im Vergleich zu 2,5 % ohne Ester
With 1 % Glycerylcaprylat
  Löslichkeit "HAP" bei RT: 2,25 % gelöst
With 1 % Polyglyceryl-2-caprat, 35 °C
  Löslichkeit "HAP" bei 35 °C: 3 % gelöst (Steigerung im Vergleich zu 2,5 % ohne Ester)
With 1 % Polyglyceryl-2-caprat
  Löslichkeit "HAP" bei RT: < 2,25 % nicht vollständig gelöst

## Glycerylstearatcitrate [reference compound]
  Einfluss auf die Löslichkeit von 4-Hydroxyacetophenon: keinen Einfluss

## Polyglyceryl-2-caprat
1 % of the ester in C12-15 Alkylbenzoate, 35°C
  Löslichkeit des Glycerylesters im verwendeten Lösungsmittel (kosmetischen öl): vollständig
1 % of the ester in C12-15 Alkylbenzoate, RT
  Löslichkeit des Glycerylesters im verwendeten Lösungsmittel (kosmetischen öl): vollständig
